Data as given in US7741327B2 (Hoffmann-La Roche Inc., priority 2008, dated 2010).

What follows are compounds tested against T1, Recombinant human liver GK1 (GST-GK) (Homo sapiens, UniProt P35557) (assay: In vitro glucokinase activity (G6PDH-coupled NADH assay)). Conditions: 30° C., 5 mM D-glucose, 10% DMSO.
T1 construct: made in house; host or cells: E. coli
T1 sequence (P35557 1-466 isoform P35557-2): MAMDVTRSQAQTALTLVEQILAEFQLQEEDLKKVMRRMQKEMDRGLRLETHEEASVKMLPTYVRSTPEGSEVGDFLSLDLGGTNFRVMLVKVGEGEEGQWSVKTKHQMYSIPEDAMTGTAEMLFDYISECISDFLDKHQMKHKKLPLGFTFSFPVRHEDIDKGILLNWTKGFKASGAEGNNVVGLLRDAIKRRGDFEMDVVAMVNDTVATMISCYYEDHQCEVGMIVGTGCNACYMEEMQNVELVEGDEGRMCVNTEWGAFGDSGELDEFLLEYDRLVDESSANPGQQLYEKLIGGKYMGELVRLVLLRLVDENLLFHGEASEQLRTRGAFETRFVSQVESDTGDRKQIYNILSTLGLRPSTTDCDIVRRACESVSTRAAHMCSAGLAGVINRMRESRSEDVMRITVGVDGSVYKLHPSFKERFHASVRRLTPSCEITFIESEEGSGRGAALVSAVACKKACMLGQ
Assay type: biochemical
Protocol: Glucokinase In Vitro Assay Protocol: Glucokinase (GK) was assayed by coupling the production of glucose-6-phosphate to the generation of NADH with glucose-6-phosphate dehydrogenase (G6PDH, 0.75-1 kunits/mg; Boehringer Mannheim, Indianapolis, Ind.) from Leuconostoc mesenteroides as the coupling enzyme (Scheme 2).
Recombinant human liver GK1 was expressed in E. coli as a glutathione S-transferase fusion protein (GST-GK) [Liang et al, 1995] and was purified by chromatography over a glutathione-Sepharose 4B affinity column using the procedure provided by the manufacturer (Amersham Pharmacia Biotech, Piscataway, N.J.).
The assay was conducted at 30° C. in a flat bottom 96-well tissue culture plate from Costar (Cambridge, Mass.) with a final incubation volume of 120 μL. The incubation reaction contained the following: 25 mM Hepes buffer (pH 7.1), 25 mM KCl, 5 mM D-glucose, 1 mM ATP, 1.8 mM NAD, 2 mM MgCl2, 1 μM sorbitol-6-phosphate, 1 mM dithiothreitol, test drug or 10% dimethylsulfoxide, ˜7 units/ml G6PDH, and GK (see below). All organic reagents were >98% pure and were from Boehringer Mannheim with the exceptions of D-glucose and Hepes which were from Sigma Chemical Co, St Louis, Mo. Test compounds were dissolved in dimethylsulfoxide and were added to the incubation reaction minus GST-GK in a volume of 12 μL to yield a final dimethylsulfoxide concentration of 10%. This mix was pre-incubated in the temperature controlled chamber of a SPECTRAmax 250 microplate spectrophotometer (Molecular Devices Corporation, Sunnyvale, Calif.) for 10 min to allow temperature equilibrium and then the reaction was started by the addition of 20 μL GST-GK.
After addition of enzyme, the increase in optical density (OD) at 340 nm was monitored spectrophotometrically to determine the rate of change (OD340 per min). The GK activity (OD340/min) in control wells (10% DMSO minus GK activators) was compared with the activity in wells containing test GK activators, and the concentration of activator that produced a 50% increase in the activity of GK, i.e., the SC1.5, was calculated. The table below provides the in vitro glucokinase activity for the compounds in the Examples: […]

| SMILES | SC1.5 (concentration of activator that produced a 50% increase in the activity of GK) |
| --- | --- |
| CC(C)(O)Cn1ccc(NC(=O)[C@H](CC2CCCCC2)N2CC(Oc3ccccc3C(C)(C)C)=CC2=O)n1 [Example 197, (S)-2-[4-(2-t-butyl-phenoxy)-2-oxo-2,5-dihydro-pyrrol-1-yl]-3-cyclohexyl-N-[1-(2-hydroxy-2-methyl-propyl)-1H-pyrazol-3-yl]-propionamide] | 0.892 µM |
| CC1(C)OC[C@@H](Cn2ccc(NC(=O)[C@H](Cc3ccc(F)cc3)N3CC(Oc4ccccc4Cl)=CC3=O)n2)O1 [Example 186, (S)-2-[4-(2-chloro-phenoxy)-2-oxo-2,5-dihydro-pyrrol-1-yl]-N-[1-((R)-2,2-dimethyl-[1,3]dioxolan-4-yl-methyl)-1H-pyrazol-3-yl]-3-(4-fluoro-phenyl)-propionamide] | 1.538 µM |
| COc1ccc(OC2=CC(=O)N([C@@H](CC(C)C)C(=O)Nc3ccn(C[C@@H](O)CO)n3)C2)cc1 [Example 99, (S)-2-[4-(4-Methoxy-phenoxy)-2-oxo-2,5-dihydro-pyrrol-1-yl]-4-methyl-pentanoic acid [1-((R)-2,3-dihydroxy-propyl)-1H-pyrazol-3-yl]-amide] | 0.747 µM |
| CC(C)(O)Cn1ccc(NC(=O)[C@H](CC2CCCCC2)N2CC(Oc3c(F)ccc(Cl)c3F)=CC2=O)n1 [Example 72, (S)-2-[4-(3-Chloro-2,6-difluoro-phenoxy)-2-oxo-2,5-dihydro-pyrrol-1-yl]-3-cyclohexyl-N-[1-(2-hydroxy-2-methyl-propyl)-1H-pyrazol-3-yl]-propionamide] | 0.024 µM |
| CC[C@H](C)C[C@H](C(=O)Nc1ccn(C[C@@H](O)CO)n1)N1CC(Oc2ccccc2Cl)=CC1=O (single isomer, unassigned) [Example 250] | 6.017 µM |
| CC(C)(O)Cn1ccc(NC(=O)C(CC2CC3CCC2C3)N2CC(Oc3c(F)cccc3F)=CC2=O)n1 (centres unmarked) [Example 228, 3-Bicyclo[2.2.1]hept-2-yl-2-[4-(2,6-difluoro-phenoxy)-2-oxo-2,5-dihydro-pyrrol-1-yl]-N-[1-(2-hydroxy-2-methyl-propyl)-1H-pyrazol-3-yl]-propionamide] | 0.365 µM |
| CC(C)(O)Cn1ccc(NC(=O)[C@H](CC2CCCCC2)N2CC(Oc3c(F)cccc3F)=CC2=O)n1 [Example 36, (S)-3-Cyclohexyl-2-[4-(2,6-difluoro-phenoxy)-2-oxo-2,5-dihydro-pyrrol-1-yl]-N-[1-(2-hydroxy-2-methyl-propyl)-1H-pyrazol-3-yl]-propionamide] | 0.028 µM |
| CC(C)(O)Cn1ccc(NC(=O)[C@H](CC2CCCCC2)N2CC(Oc3ccccc3OCc3ccccc3)=CC2=O)n1 [Example 203, (S)-2-[4-(2-benzyloxy-phenoxy)-2-oxo-2,5-dihydro-pyrrol-1-yl]-3-cyclohexyl-N-[1-(2-hydroxy-2-methyl-propyl)-1H-pyrazol-3-yl]-propionamide] | 0.253 µM |
| CC(C)(O)Cn1ccc(NC(=O)[C@@H](C[C@H]2C[C@H](C)C2)N2CC(Oc3ccccc3Cl)=CC2=O)n1 (single isomer, unassigned) [Example 216] | 2.715 µM |

Continued, values first:

| SC1.5 (concentration of activator that produced a 50% increase in the activity of GK) | SMILES |
| --- | --- |
| 0.012 µM | Cc1cccc(OC2=CC(=O)N([C@@H](CC3CCCCC3)C(=O)Nc3ccn(CC(C)(C)O)n3)C2)c1C [Example 204, (S)-3-cyclohexyl-2-[4-(2,3-dimethyl-phenoxy)-2-oxo-2,5-dihydro-pyrrol-1-yl]-N-[1-(2-hydroxy-2-methyl-propyl)-1H-pyrazol-3-yl]-propionamide] |
| 16.668 µM | CC(C)(C)CCC(C(=O)Nc1ccn(C[C@@H](O)CO)n1)N1CC(Oc2ccccc2Cl)=CC1=O (stereo partly drawn) [Example 227, 2-[4-(2-Chloro-phenoxy)-2-oxo-2,5-dihydro-pyrrol-1-yl]-5,5-dimethyl-hexanoic acid [1-((R)-2,3-dihydroxy-propyl)-1H-pyrazol-3-yl]amide] |
| 0.148 µM | CC(C)(O)Cn1ccc(NC(=O)C(CC2CCOCC2)N2CC(Oc3c(F)cccc3F)=CC2=O)n1 (centres unmarked) [Example 42, 2-[4-(2,6-Difluoro-phenoxy)-2-oxo-2,5-dihydro-pyrrol-1-yl]-N-[1-(2-hydroxy-2-methyl-propyl)-1H-pyrazol-3-yl]-3-(tetrahydro-pyran-4-yl)-propionamide] |
| 0.206 µM | CC(C)C[C@@H](C(=O)Nc1ccn(CC(C)(C)O)n1)N1CC(Oc2ccccc2F)=CC1=O [Example 167, (S)-2-[4-(2-Fluoro-phenoxy)-2-oxo-2,5-dihydro-pyrrol-1-yl]-4-methyl-pentanoic acid [1-(2-hydroxy-2-methyl-propyl)-1H-pyrazol-3-yl]-amide] |
| 2.458 µM | CC(C)C[C@@H](C(=O)Nc1ccn(CC(C)(C)O)n1)N1CC(Oc2cccc(O)c2N)=CC1=O [Example 241, (S)-2-[4-(2-Amino-3-hydroxy-phenoxy)-2-oxo-2,5-dihydro-pyrrol-1-yl]-4-methyl-pentanoic acid [1-(2-hydroxy-2-methyl-propyl)-1H-pyrazol-3-yl]-amide] |
| > 30 µM | COc1ccc(Cc2nsc(NC(=O)[C@H](CC(C)C)N3CC(Oc4ccccc4Cl)=CC3=O)n2)cc1 [Example 109, (S)-2-[4-(2-Chloro-phenoxy)-2-oxo-2,5-dihydro-pyrrol-1-yl]-4-methyl-pentanoic acid [3-(4-methoxy-benzyl)-[1,2,4]thiadiazol-5-yl]-amide] |
| 0.012 µM | COc1cccc(OC2=CC(=O)N([C@@H](CC3CCCCC3)C(=O)Nc3ccn(CC(C)(C)O)n3)C2)c1Cl [Example 57, (S)-2-[4-(2-Chloro-3-methoxy-phenoxy)-2-oxo-2,5-dihydro-pyrrol-1-yl]-3-cyclohexyl-N-[1-(2-hydroxy-2-methyl-propyl)-1H-pyrazol-3-yl]-propionamide] |
| 1.855 µM | COC(=O)c1ccc(NC(=O)[C@H](CC2CCCC2)N2CC(OC)=CC2=O)nc1 [Example 10, 6-[(S)-3-Cyclopentyl-2-(4-methoxy-2-oxo-2,5-dihydro-pyrrol-1-yl)-propionylamino]-nicotinic acid methyl ester] |
| 0.018 µM | CC(C)(O)Cn1ccc(NC(=O)[C@H](CC2CCCCC2)N2CC(Oc3cccc(Cl)c3)=CC2=O)n1 [Example 207, (S)-2-[4-(3-chloro-phenoxy)-2-oxo-2,5-dihydro-pyrrol-1-yl]-3-cyclohexyl-N-[1-(2-hydroxy-2-methyl-propyl)-1H-pyrazol-3-yl]-propionamide] |
| 0.035 µM | CC(C)(O)Cn1ccc(NC(=O)[C@H](CC2CCCCC2)N2CC(Oc3cccc4c3OCCO4)=CC2=O)n1 [Example 33, (S)-3-Cyclohexyl-2-[4-(2,3-dihydro-benzo[1,4]dioxin-5-yloxy)-2-oxo-2,5-dihydro-pyrrol-1-yl]-N-[1-(2-hydroxy-2-methyl-propyl)-1H-pyrazol-3-yl]-propionamide] |

Same assay, conditions: at 30 μM test compound

| fold act. @ 30 μM | SMILES |
| --- | --- |
| 1.3 fold | COc1ccc(Cc2nsc(NC(=O)[C@H](CC(C)C)N3CC(Oc4ccccc4Cl)=CC3=O)n2)cc1 [Example 109, (S)-2-[4-(2-Chloro-phenoxy)-2-oxo-2,5-dihydro-pyrrol-1-yl]-4-methyl-pentanoic acid [3-(4-methoxy-benzyl)-[1,2,4]thiadiazol-5-yl]-amide] |
